Measured values reported in the supplement of paper PMC11451515.

Tested on: P12-Ichikawa
Experiment: cell viability relative to DMSO control; higher = less cytotoxic
Details: 48 h
In short: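 Viability, reported as a per-plate percentage of DMSO wells with cell-free wells as background, came from CellTiter-Glo One luminescence. Reading took place after 48 h at 37°C. Before that, NOMO1 or SEM (500 cells/well) or P12-Ichikawa (1000 cells/well) leukemia cells, adapted for at least four passages in each medium, were seeded in 1536-well plates (5 μl) and pin-dosed with library compounds in DMSO, 47 μM to 0.79 nM over 11 threefold points.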

[1] = HPLM + 10% dialyzed FBS, 0.000781 µM
[2] = HPLM + 10% dialyzed FBS, 0.00234 µM
[3] = HPLM + 10% dialyzed FBS, 0.00702 µM
[4] = HPLM + 10% dialyzed FBS, 0.0211 µM
[5] = HPLM + 10% dialyzed FBS, 0.0632 µM
[6] = HPLM + 10% dialyzed FBS, 0.19 µM
[7] = HPLM + 10% dialyzed FBS, 0.569 µM
[8] = HPLM + 10% dialyzed FBS, 1.71 µM
[9] = HPLM + 10% dialyzed FBS, 5.12 µM
[10] = HPLM + 10% dialyzed FBS, 15.4 µM
[11] = HPLM + 10% dialyzed FBS, 46.1 µM
[12] = RPMI 5 mM glucose + 10% FBS, 0.000781 µM
[13] = RPMI 5 mM glucose + 10% FBS, 0.00234 µM
[14] = RPMI 5 mM glucose + 10% FBS, 0.00702 µM
[15] = RPMI 5 mM glucose + 10% FBS, 0.0211 µM
[16] = RPMI 5 mM glucose + 10% FBS, 0.0632 µM
[17] = RPMI 5 mM glucose + 10% FBS, 0.19 µM
[18] = RPMI 5 mM glucose + 10% FBS, 0.569 µM
[19] = RPMI 5 mM glucose + 10% FBS, 1.71 µM
[20] = RPMI 5 mM glucose + 10% FBS, 5.12 µM
[21] = RPMI 5 mM glucose + 10% FBS, 15.4 µM
[22] = RPMI 5 mM glucose + 10% FBS, 46.1 µM
[23] = RPMI 5 mM glucose + 10% dialyzed FBS, 0.000781 µM
[24] = RPMI 5 mM glucose + 10% dialyzed FBS, 0.00234 µM
[25] = RPMI 5 mM glucose + 10% dialyzed FBS, 0.00702 µM
[26] = RPMI 5 mM glucose + 10% dialyzed FBS, 0.0211 µM
[27] = RPMI 5 mM glucose + 10% dialyzed FBS, 0.0632 µM
[28] = RPMI 5 mM glucose + 10% dialyzed FBS, 0.19 µM
[29] = RPMI 5 mM glucose + 10% dialyzed FBS, 0.569 µM
[30] = RPMI 5 mM glucose + 10% dialyzed FBS, 1.71 µM
[31] = RPMI 5 mM glucose + 10% dialyzed FBS, 5.12 µM
[32] = RPMI 5 mM glucose + 10% dialyzed FBS, 15.4 µM
[33] = RPMI 5 mM glucose + 10% dialyzed FBS, 46.1 µM

Row | SMILES | cell viability [1] [%] | cell viability [2] [%] | cell viability [3] [%] | cell viability [4] [%] | cell viability [5] [%] | cell viability [6] [%] | cell viability [7] [%] | cell viability [8] [%] | cell viability [9] [%] | cell viability [10] [%] | cell viability [11] [%] | cell viability [12] [%] | cell viability [13] [%] | cell viability [14] [%] | cell viability [15] [%] | cell viability [16] [%] | cell viability [17] [%] | cell viability [18] [%] | cell viability [19] [%] | cell viability [20] [%] | cell viability [21] [%] | cell viability [22] [%] | cell viability [23] [%] | cell viability [24] [%] | cell viability [25] [%] | cell viability [26] [%] | cell viability [27] [%] | cell viability [28] [%] | cell viability [29] [%] | cell viability [30] [%] | cell viability [31] [%] | cell viability [32] [%] | cell viability [33] [%]
1 | O=C(Nc1ncc(SCCN2CCCC2)s1)[C@]1(c2ccc([S+](=O)([O-])C3CC3)cc2)C[C@H]1C1CCCCC1 | 117 | 115 | 121 | 121 | 116 | 113 | 116 | 108 | 111 | 96.5 | 68.8 | 120 | 120 | 111 | 123 | 108 | 123 | 105 | 112 | 105 | 108 | 43.6 | 111 | 122 | 114 | 121 | 109 | 118 | 120 | 109 | 108 | 88.3 | 35.9
2 | COCCOc1nc(-c2ccc(Cl)c(Cl)c2)n(-c2ccc(NC(=O)CCl)cc2)n1 | 96.6 | 97.3 | 102 | 103 | 103 | 106 | 99.1 | 104 | 84.4 | 99.8 | 98.5 | 89.4 | 101 | 90.1 | 104 | 98.9 | 101 | 93.4 | 107 | 79.7 | 79.9 | 88.7 | 84.1 | 92.2 | 86.1 | 94.6 | 91.2 | 93.7 | 98.9 | 86.4 | 76 | 77.8 | 86.9
3 | CC[C@H](C)C(=O)O[C@H]1C[C@H](O)\C=C2\C=C/[C@H](C)[C@H](CC[C@@H](O)C[C@@H](O)CC(O)=O)[C@@H]12 | 112 | 116 | 105 | 112 | 111 | 109 | 107 | 97.1 | 98.2 | 96.1 | 86.7 | 107 | 106 | 107 | 113 | 116 | 110 | 106 | 104 | 98.1 | 98.9 | 96.5 | 114 | 102 | 109 | 109 | 111 | 117 | 106 | 106 | 105 | 101 | 92.1
4 | O=C(O)CCn1c2c(c3ccccc31)C[C@H](N[S+](=O)([O-])c1ccc(F)cc1)CC2 | 117 | 113 | – | 110 | 113 | 106 | 113 | 111 | 106 | 100 | 73.6 | 119 | 120 | 121 | 121 | 120 | 122 | 122 | 111 | 114 | 115 | 95.5 | 110 | 116 | 116 | 114 | 115 | 103 | 109 | 108 | 102 | 92.2 | 66.9
5 | COc1cccc([C@@H](C)NCCCc2ccccc2Cl)c1 | 93.8 | 98 | 89.9 | 93.3 | 97.5 | 99.9 | 94.4 | 92.7 | 99.3 | 99.2 | 106 | 95 | 94.2 | 94.3 | 85.9 | 96.9 | 91.9 | 94.1 | 92.8 | 90.6 | 94.9 | 103 | 83.1 | 87.5 | 85.3 | 88.1 | 91.3 | 90.7 | 87.4 | 91.4 | 95.2 | 98.1 | 99.8
